Where a name gives a salt, the structure may show the parent alone.
Key:
[1] = tested on: EmGFP-HaloTag; experiment: Test Example 2: HeLa cells transiently overexpressing EmGFP-HaloTag, Western blot GFP/actin (Testing Method B); assay type: cell-based; settings: 24 hours, 1 or less = degradation promoted
Procedure: Test Example 2: Evaluation Using Cell Transiently Overexpressing EmGFP-HaloTag (Testing Method B)
HeLa cells were inoculated to Dulbecco's Modified Eagle Medium (DMEM) and cultured for 24 hours. Cells overexpressing EmGFP-HaloTag were obtained by transfection with a plasmid pCMV-EmGFP-HaloTag encoding EmGFP-HaloTag. On the next day, a test compound (specifically, compounds of Examples 8, 12, 16, 21 to 23, 28, 30 and 31) was added thereto at the final concentration shown in Table 2, followed by incubation for 24 hours under conditions of 37° C./5% CO2. The cells were washed with PBS three times and treated with a cell lysis solution containing a proteolytic enzyme inhibitor to obtain a cell extract. The cell extract was subjected to SDS-PAGE. After the electrophoresis, GFP and actin were detected by Western blot. The ratio of the GFP/actin value of the drug-treated cells to the GFP/actin value of a control group in drug-untreated cells was regarded as an activity value. A value of 1 or less represents that degradation of EmGFP-HaloTag was promoted.

[2] = tested on: EmGFP-HaloTag; experiment: Test Example 1: HeLa cells stably expressing EmGFP-HaloTag, Western blot GFP/actin (Testing Method A); assay type: cell-based; settings: 24 hours, 1 or less = degradation promoted
Procedure: Test Example 1: Evaluation Method Using Cell Stably Expressing EmGFP-HaloTag (Testing Method A)
HeLa cells stably expressing EmGFP-HaloTag were inoculated to Dulbecco's Modified Eagle Medium (DMEM) and cultured for 24 hours. Then, a test compound (specifically, compounds of Examples 1 to 7, 9 to 11, 13 to 15, 17 to 20, 24 to 27, 29, 32 to 33, 36 to 42, 44 to 46 and 56) was added thereto at the final concentration shown in Table 2, followed by incubation for 24 hours under conditions of 37° C./5% CO2. The cells were washed with PBS three times and treated with a cell lysis solution containing a proteolytic enzyme inhibitor to obtain a cell extract. The cell extract was subjected to SDS-PAGE. After the electrophoresis, GFP and actin were detected by Western blot. The ratio of the GFP/actin value of the drug-treated cells to the GFP/actin value of a control group in drug-untreated cells was regarded as an activity value. A value of 1 or less represents that degradation of EmGFP-HaloTag was promoted.

Nc1nc2c(nc(C#CCOCCOCCOCCOCCOCCOCCCCCCCl)n2Cc2ccc(F)cc2)c(=O)[nH]1 [Example 16, 2-Amino-8-(25-chloro-4,7,10,13,16,19-hexaoxapentacos-1-yn-1-yl)-9-(4-fluorobenzyl)-1,9-dihydro-6H-purin-6-one]
Activity value (GFP/actin of drug-treated cells relative to drug-untreated control) ([1]; 10 uM): 0.4

CC(=O)N[C@@H](CSc1nc2c(=O)[nH]c(N)nc2n1Cc1cccc(F)c1)C(=O)NCCOCCOCCOCCOCCOCCCCCCCl [Example 23]
Activity value (GFP/actin of drug-treated cells relative to drug-untreated control) ([1]; 1 uM): 0.7

Nc1nc2c(nc(NCCC(=O)NCCOCCOCCOCCOCCOCCCCCCCl)n2Cc2ccc(F)cc2)c(=O)[nH]1 [Example 8, N^3-(2-Amino-9-(4-fluorobenzyl)-6-oxo-6,9-dihydro-1H-purin-8-yl)-N-(21-chloro-3,6,9,12,15-pentaoxahenicos-1-yl)-β-alaninamide]
Activity value (GFP/actin of drug-treated cells relative to drug-untreated control) ([1]; 1 uM): 0.7

CC(=O)N[C@@H](CSc1nc2c(=O)n(C)c(N)nc2n1Cc1ccc(F)cc1)C(=O)NCCOCCOCCOCCOCCOCCCCCCCl [Example 30, N^2-Acetyl-S-(2-amino-9-(4-fluorobenzyl)-1-methyl-6-oxo-6,9-dihydro-1H-purin-8-yl)-N— (21-chloro-3,6,9,12,15-pentaoxahenicos-1-yl)-L-cysteinamide]
Activity value (GFP/actin of drug-treated cells relative to drug-untreated control) ([1]; 1 uM): 0.2

CC(=O)N[C@@H](CSc1cn(Cc2ccc(F)cc2)c(=O)nc1N)C(=O)NCCOCCOCCOCCOCCOCCCCCCCl [Example 21, N^2-Acetyl-S-(4-amino-1-(4-fluorobenzyl)-2-oxo-1,2-dihydropyrimidin-5-yl)-N-(21-chloro-3,6,9,12,15-pentaoxahenicos-1-yl)-L-cysteinamide Trifluoroacetate]
Activity value (GFP/actin of drug-treated cells relative to drug-untreated control) ([1]; 1 uM): 0.3

CC(=O)N[C@@H](CSc1nc2c(=O)[nH]c(N)nc2n1C1CCCCC1)C(=O)NCCOCCOCCOCCOCCOCCCCCCCl [Example 28, N^2-acetyl-S-(2-amino-9-cyclohexyl-6-oxo-6,9-dihydro-1H-purin-8-yl)-N-(21-chloro-3,6,9,12,15-pentaoxahenicos-1-yl)-L-cysteinamide]
Activity value (GFP/actin of drug-treated cells relative to drug-untreated control) ([1]; 1 uM): 0.4

CC(=O)N[C@@H](CSc1nc2c(=O)[nH]c(N)nc2n1Cc1ccccc1F)C(=O)NCCOCCOCCOCCOCCOCCCCCCCl [Example 22, N^2-acetyl-S-(2-amino-9-(2-fluorobonzvl)-6-oxo-6,9-dihydro-1H-purin-8-yl)-N-(21-chloro-3,6,9,12,15-pentaoxahenicos-1-yl)-L-cysteinamide]
Activity value (GFP/actin of drug-treated cells relative to drug-untreated control) ([1]; 10 uM): 0.7

CC(=O)N[C@@H](CSc1nc2c(N)ncnc2n1Cc1ccc(F)cc1)C(=O)NCCOCCOCCOCCOCCOCCCCCCCl [Example 17, N^2-Acetyl-S-(6-amino-9-(4-fluorobenzyl)-9H-purin-8-yl)-N-(21-chloro-3,6,9,12,15-pentaoxahenicos-1-yl)-L-cysteinamide trifluoroacetate]
Activity value (GFP/actin of drug-treated cells relative to drug-untreated control) ([2]; 1 uM): 0.7

CC(=O)N[C@@H](CSc1c(NCc2ccc(F)cc2)nc(N)[nH]c1=O)C(=O)NCCOCCOCCOCCOCCOCCCCCCCl [Example 19, N^2-Acetyl-S-(2-amino-4-((4-fluorobenzyl)amino)-6-oxo-1,6-dihydropyrimidin-5-yl)-N-(21-chloro-3,6,9,12,15-pentaoxahenicos-1-yl)-L-cysteinamide Trifluoroacetate]
Activity value (GFP/actin of drug-treated cells relative to drug-untreated control) ([2]; 10 uM): 0.5

CC(=O)N[C@@H](CSc1nc2c(=O)[nH]cnc2n1Cc1ccc(F)cc1)C(=O)NCCOCCOCCOCCOCCOCCCCCCCl [Example 26, N^2-Acetyl-N-(21-chloro-3,6,9,12,15-pentaoxahenicos-1-yl)-S-(9-(4-fluorobenzyl)-6-oxo-6,9-dihydro-1H-purin-8-yl)-L-cysteinamide]
Activity value (GFP/actin of drug-treated cells relative to drug-untreated control) ([2]; 1 uM): 0.5

CC(=O)N[C@@H](CSc1nc2c(=O)[nH]c(N)nc2n1Cc1cccnc1)C(=O)NCCOCCOCCOCCOCCOCCCCCCCl [Example 41, N^2-acetyl-S-(2-amino-6-oxo-9-(pyridin-3-ylmethyl)-6,9-dihydro-1H-purin-8-yl)-N-(21-chloro-3,6,9,12,15-pentaoxahenicos-1-yl)-L-cysteinamide trifluoroacetic acid salt]
Activity value (GFP/actin of drug-treated cells relative to drug-untreated control) ([2]; 1 uM): 0.5

CC(=O)N[C@@H](CSc1nc2c(=O)[nH]c(N)nc2n1Cc1ccc(S(C)(=O)=O)cc1)C(=O)NCCOCCOCCOCCOCCOCCCCCCCl [Example 39, N^2-acetyl-S-(2-amino-9-(4-(methylsulfonyl)benzyl)-6-oxo-6,9-dihydro-1H-purin-8-yl)-N-(21-chloro-3,6,9,12,15-pentaoxahenicos-1-yl)-L-cysteinamide]
Activity value (GFP/actin of drug-treated cells relative to drug-untreated control) ([2]; 1 uM): 0.7

Nc1nc2c(nc(SCC(=O)NCCOCCOCCOCCOCCOCCCCCCCl)n2Cc2ccc(F)cc2)c(=O)[nH]1 [Example 7]
Activity value (GFP/actin of drug-treated cells relative to drug-untreated control) ([2]; 5 uM): 0.79

Nc1nc2c(nc(CCC(=O)NCCOCCOCCOCCOCCOCCCCCCCl)n2Cc2ccc(F)cc2)c(=O)[nH]1 [Example 6, 3-(2-Amino-9-(4-fluorobenzyl)-6-oxo-6,9-dihydro-1H-purin-8-yl)-N-(21-chloro-3,6,9,12,15-pentaoxahenicos-1-yl)propanamide]
Activity value (GFP/actin of drug-treated cells relative to drug-untreated control) ([2]; 10 uM): 0.94

COc1ccc(Cn2c(SC[C@H](NC(C)=O)C(=O)NCCOCCOCCOCCOCCOCCCCCCCl)nc3c(=O)[nH]c(N)nc32)cc1 [Example 38, N^2-acetyl-S-(2-amino-9-(4-methoxybenzyl)-6-oxo-6,9-dihydro-1H-purin-8-yl)-N-(21-chloro-3,6,9,12,15-pentaoxahenicos-1-yl)-L-cysteinamide]
Activity value (GFP/actin of drug-treated cells relative to drug-untreated control) ([2]; 100 uM): 0.8

Nc1nc2c(nc(/C=C/C(=O)NCCOCCOCCOCCOCCOCCCCCCCl)n2Cc2ccc(F)cc2)c(=O)[nH]1 [Example 5, (2E)-3-(2-Amino-9-(4-fluorobenzyl)-6-oxo-6,9-dihydro-1H-purin-8-yl)-N-(21-chloro-3,6,9,12,15-pentaoxahenicos-1-yl)acrylamide]
Activity value (GFP/actin of drug-treated cells relative to drug-untreated control) ([2]; 1 uM): 0.3

Nc1nc2c(nc(C(=O)NCCOCCOCCOCCOCCOCCCCCCCl)n2Cc2ccc(F)cc2)c(=O)[nH]1 [Example 33, 2-Amino-N-(21-chloro-3,6,9,12,15-pentaoxahenicos-1-yl)-9-(4-fluorobenzyl)-6-oxo-6,9-dihydro-1H-purine-8-carboxamide]
Activity value (GFP/actin of drug-treated cells relative to drug-untreated control) ([2]; 1 uM): 0.9

Nc1nc2c(nc(-c3ccc(OCCOCCOCCOCCOCCOCCCCCCCl)cc3)n2Cc2ccc(F)cc2)c(=O)[nH]1 [Example 11, 2-amino-8-(4-((21-chloro-3,6,9,12,15-pentaoxahenicos-1-yl)oxy)phenyl)-9-(4-fluorobenzyl)-1,9-dihydro-6H-purin-6-enea]
Activity value (GFP/actin of drug-treated cells relative to drug-untreated control) ([2]; 10 uM): 0.7

CC(=O)N[C@@H](CSc1nc2c(=O)[nH]c(N)nc2n1Cc1ccccc1)C(=O)NCCOCCOCCOCCOCCOCCCCCCCl [Example 20, N^2-Acetyl-S-(2-amino-9-benzyl-6-oxo-6,9-dihydro-1H-purin-8-yl)-N-(21-chloro-3,6,9,12,15-pentaoxahenicos-1-yl)-L-cysteinamide Trifluoroacetate]
Activity value (GFP/actin of drug-treated cells relative to drug-untreated control) ([2]; 10 uM): 0.2

Nc1nc2c(nc(-c3cnn(CCOCCOCCOCCOCCOCCCCCCCl)c3)n2Cc2ccc(F)cc2)c(=O)[nH]1 [Example 14, 2-amino-8-(1-(21-chloro-3,6,9,12,15-pentaoxahenicos-1-yl)-1H-pyrazol-4-yl)-9-(4-fluorobenzyl)-1,9-dihydro-6H-purin-6-one]
Activity value (GFP/actin of drug-treated cells relative to drug-untreated control) ([2]; 1 uM): 0.2

CC(=O)N[C@@H](CSc1nc2c(=O)[nH]c(N)nc2n1Cc1cccc(Cl)c1)C(=O)NCCOCCOCCOCCOCCOCCCCCCCl [Example 37, N^2-acetyl-S-(2-amino-9-(3-chlorobenzyl)-6-oxo-6,9-dihydro-1H-purin-8-yl)-N-(21-chloro-3,6,9,12,15-pentaoxahenicos-1-yl)-L-cysteinamide]
Activity value (GFP/actin of drug-treated cells relative to drug-untreated control) ([2]; 1 uM): 0.7

CC(=O)N[C@@H](CSc1nc2c(=O)[nH]c(N)nc2n1Cc1cncs1)C(=O)NCCOCCOCCOCCOCCOCCCCCCCl [Example 42, N^2-acetyl-S-(2-amino-6-oxo-9-(1,3-thiazole-5-ylmethyl)-6,9-dihydro-1H-purin-8-yl)-N-(21-chloro-3,6,9,12,15-pentaoxahenicos-1-yl)-L-cysteinamide]
Activity value (GFP/actin of drug-treated cells relative to drug-untreated control) ([2]; 1 uM): 0.8

Reference: patent publication US11986480B2, “Heterocyclic compound” (TOHOKU UNIVERSITY, priority 2017, dated 2024)
